Test results: patent publication US7524968B2, “2-pyridinylcycloalkylbenzamide derivatives and their use as fungicides” (Bayer Cropscience S.A., priority 2004, dated 2009)

Columns and labels:
Conditions in all cases: 330 ppm; result in words
Alternaria brassicae = assay: In vivo test on Alternaria brassicae (leaf spot of crucifers) on radish plants
Description: The active ingredient tested is prepared by potter homogenization in a concentrated suspension type formulation at 100 g/l. This suspension is then diluted with water to obtain the desired active material concentration.
Radish plants (Pernot variety) in starter cups, sown on a 50/50 peat soil-pozzolana substrate and grown at 18-20° C., are treated at the cotyledon stage by spraying with the aqueous suspension described above.
Plants, used as controls, are treated with an aqueous solution not containing the active material.
After 24 hours, the plants are contaminated by spraying them with an aqueous suspension of Alternaria brassicae spores (40,000 spores per cm^3). The spores are collected from a 12-13-day-old culture.
The contaminated radish plants are incubated for 6-7 days at about 18° C., under a humid atmosphere.
Grading is carried out 6 to 7 days after the contamination, in comparison with the control plants.

Botrytis cinerea = assay: Effectiveness on Botrytis cinerea (comparison compounds of WO 01/11965); format: in vivo
Peronospora parasitica = assay: Efficacy against Peronospora parasitica (comparison compound of WO 01/11965); format: in vivo

SMILES	effectiveness on Alternaria brassicae (Alternaria brassicae)	effectiveness on Botrytis cinerea (Botrytis cinerea)	efficacy against Peronospora parasitica (Peronospora parasitica)
O=C(Cc1cccs1)NCc1ncc(C(F)(F)F)cc1Cl [compound 101, N-{[3-chloro-5-(trifluoromethyl)-2-pyridinyl]methyl}-5-thienylacetamide]	poor efficacy	no efficacy	no efficacy
CCNC(=O)C(Cc1ncc(C(F)(F)F)cc1Cl)NC(=O)c1ccccc1 (stereo not drawn) [compound 304, N-{1-ethylcarbamoyl-2-[3-chloro-5-(trifluoromethyl)-2-pyridinyl]-ethyl}-benzamide]		zero effectiveness	
CCNC(=O)C(Cc1ncc(C(F)(F)F)cc1Cl)NC(=O)c1ccc(Cl)cc1 (stereo not drawn) [compound 306, N-{1-ethylcarbamoyl-2-[3-chloro-5-(trifluoromethyl)-2-pyridinyl]ethyl}-4-chlorobenzamide]		zero effectiveness	
CCNC(=O)C(Cc1ncc(C(F)(F)F)cc1Cl)NC(=O)c1cccc([N+](=O)[O-])c1 (stereo not drawn) [compound 307, N-{1-ethylcarbamoyl-2-[3-chloro-5-(trifluoromethyl)-2-pyridinyl]ethyl}-3-nitrobenzamide]	poor effectiveness	zero effectiveness	
CCNC(=O)C(Cc1ncc(C(F)(F)F)cc1Cl)NC(=O)c1ccccc1Br (stereo not drawn) [compound 310, N-{1-ethylcarbamoyl-2-[3-chloro-5-(trifluoromethyl)-2-pyridinyl]ethyl}-2-bromobenzamide]		zero effectiveness	
CNC(=O)C(Cc1ncc(C(F)(F)F)cc1Cl)NC(=O)c1ccccc1 (stereo not drawn) [compound 314, N-{1-methylcarbamoyl-2-[3-chloro-5-(trifluoromethyl)-2-pyridinyl]ethyl}-benzamide]		zero effectiveness	
CNC(=O)C(Cc1ncc(C(F)(F)F)cc1Cl)NC(=O)c1ccc(OC)cc1 (stereo not drawn) [compound 315, N-{1-methylcarbamoyl-2-[3-chloro-5-(trifluoromethyl)-2-pyridinyl]ethyl}-4-methoxybenzamide]		zero effectiveness	
CNC(=O)C(Cc1ncc(C(F)(F)F)cc1Cl)NC(=O)c1ccc(-c2ccccc2)cc1 (stereo not drawn) [compound 316, N-{1-methylcarbamoyl-2-[3-chloro-5-(trifluoromethyl)-2-pyridinyl]-ethyl}-4-phenylbenzamide]	poor effectiveness	zero effectiveness	
